Measurements reported in patent EP4818169A1, “CRYSTAL FORM OF COMPOUND SALT, PREPARATION METHOD THEREFOR AND USE THEREOF” (Apeiron Therapeutics (Hong Kong) Ltd., priority 2024, dated 2025).
≈ marks a conversion by molar mass, not a printed value.

Tests used:
[1] = Hygroscopicity by dynamic vapor sorption (DVS) test; format: physicochemical; conditions: for hygroscopic weight gain: DVS, 25°C, from 0% RH to 80% RH; for crystalline form after the DVS test: XRPD before and after DVS test
Experimental: Moisture adsorption and desorption data were obtained using a dynamic vapor sorption device (Model TA Discovery SA). Samples were equilibrated at 25°C/0% RH for 300 min at the start of the experiment. Thereafter, humidity was varied from 0% to 95% RH in 5% RH increments, with nitrogen used to control and maintain the humidity. Equilibration during testing was defined as a mass change rate of < 0.02% per minute over 10 min, with a maximum equilibration time of 120 min.
From 0% RH to 80% RH, the hygroscopic weight gain was approximately 0.25%, indicating very low hygroscopicity.

[2] = Stability of the crystalline form in the formulation (tablet compression with microcrystalline cellulose); format: physicochemical; conditions: 50% (w/w) with microcrystalline cellulose PH102, tablets compressed at 4.2 kN and 9.2 kN; XRPD
Experimental: Equal amounts of maleate crystalline form A and microcrystalline cellulose PH102 were weighed to prepare a powder formulation comprising 50% (w/w) maleate crystalline form A, and the two components were mixed thoroughly.
A total of 200 mg of the uniformly mixed powder was transferred into an 8 mm-diameter die of a rotary tablet press. One tablet was compressed at 4.2 kN and another at 9.2 kN.
The resulting tablets were characterized for weight and hardness.

[3] = Physicochemical stability on open storage (XRPD and HPLC); conditions: for Crystalline Form Change: merged cell for all storage conditions (40°C/75%RH, 60 °C, 25°C/60%RH, open) and times (2 and 4 weeks), XRPD
Experimental: The high performance liquid chromatography (HPLC) method for determining enantiomeric excess (%) used in the present application is shown in Table 5.
The purity testing method described in the present application is shown as follows.
(§1) For chemical stability studies, two open samples were prepared at each time point for each condition. Approximately 2 mg of maleate crystalline form A was transferred into a 20 mL glass vial, which was then covered with perforated aluminum foil to serve as an open sample. Samples were stored at 25°C/60% RH, 40°C/75% RH, and 60°C.
as §1, with “For physical” for “For chemical”, “Approximately 10” for “Approximately 2”, “was” for “was then”
All samples were stored for 4 weeks under the specified storage conditions. At predetermined time points (initial, 2 weeks, and 4 weeks), the corresponding samples were withdrawn and subject to chemical and physical evaluations, respectively. The physicochemical stability was assessed by XRPD and HPLC.
as §1, with “p-toluenesulfonate” for “maleate”
as §1, with “For physical” for “For chemical”, “Approximately 10” for “Approximately 2”, “of p-toluenesulfonate” for “of maleate”, “was” for “was then”, “and 60°C, respectively.” for “and 60°C.”

[4] = Dynamic solubility in different media (HPLC); format: physicochemical; conditions: for Crystalline Form Change / Solubility / pH: 24 h; for Crystalline Form Change: XRPD of precipitated solids; for Solubility: 37°C; for solubility at 24 h: 37 °C, thermodynamic from solid; for pH: pH of supernatant
Experimental: The preparation method of simulated gastrointestinal fluid involved in the present disclosure is: SGF: Transfer 2.02 g of sodium chloride into a 1000 mL beaker and add 950 mL of purified water to dissolve. Next, adjust the pH to 1.2 with 12 N hydrochloric acid. Transfer the solution to a 1000 mL volumetric flask and make up to 1000 mL with purified water.
FeSSIF: Transfer 4.04 g of sodium hydroxide, 8.65 g of acetic acid, and 11.87 g of sodium chloride into a 1000 mL volumetric flask, and dissolve with 950 mL of purified water. Titrate the obtained solution to pH 5.0 with 1M sodium hydroxide or 1M hydrochloric acid aqueous solution, and then make up to 1000 mL with purified water. Finally, weigh 11.20 g of SIF powder, add it to the above 1000 mL of pH 5.0 solution, and stir magnetically until clear.
(§2) A total of 10 mg of maleate crystalline form A was transferred into a dry, clean 4 mL glass vial. Then, 1 mL of simulated gastric fluid (SGF), fed state simulated intestinal fluid (FeSSIF), or purified water was added to the vial. All vials were placed on a shaker and agitated at 200 rpm at 37°C.
At the predetermined time point (24 h), 200 µL of the sample was withdrawn from the vial into a centrifuge tube and centrifuged at 90,000 rpm for 5 min. An appropriate amount of the supernatant was then diluted and analyzed by HPLC to determine the solubility.
The remaining 800 µL of suspension in the vial was centrifuged at 8000 rpm for 10 min. The pH of the resulting supernatant was measured, and the precipitated solids were vacuum-dried at 40°C for approximately 16 h. The dried precipitated solids were then characterized by X-ray powder diffraction.
as §2, with “p-toluenesulfonate” for “maleate”
At the predetermined time point (24 h), 200 µL of the sample was withdrawn from the vial into a centrifuge tube and centrifuged at 90,000 rpm for 5 min. An appropriate amount of the supernatant was then diluted and analyzed by high performance liquid chromatography to determine the solubility.

[5] = Mechanical stability: jet milling; format: physicochemical; conditions: feed and milling pressure 5.5 bar, 23 °C; XRPD
Experimental: The milled powder was then analyzed by XRPD and PLM, with results shown in Figure 27 and Figure 28, respectively.

[6] = Mechanical stability: pressurization method; format: physicochemical; conditions: 40 MPa held for 1 min, 5 mm die; XRPD
Experimental: Pressurization method: Maleate crystalline form A was weighed and transferred into a 5 mm-diameter die. The upper piston was then manually driven down into the die until a pressure of 40 MPa was reached and held for 1 min. Subsequently, the sample was removed and manually ground into a powder. Finally, the resulting powder was analyzed by XRPD.

hygroscopic weight gain [1]	crystalline form after the DVS test [1]	Appearance ([3]; 25°C/60%RH (Open), 2 weeks)	Purity (%) ([3]; 25°C/60%RH (Open), 2 weeks)	ee (%) ([3]; 25°C/60%RH (Open), 2 weeks)	Appearance ([3]; 25°C/60%RH (Open), 4 weeks)	Purity (%) ([3]; 25°C/60%RH (Open), 4 weeks)	ee (%) ([3]; 25°C/60%RH (Open), 4 weeks)	Appearance ([3]; 40°C/75%RH (Open), 2 weeks)	Purity (%) ([3]; 40°C/75%RH (Open), 2 weeks)	ee (%) ([3]; 40°C/75%RH (Open), 2 weeks)	Appearance ([3]; 40°C/75%RH (Open), 4 weeks)	Purity (%) ([3]; 40°C/75%RH (Open), 4 weeks)	ee (%) ([3]; 40°C/75%RH (Open), 4 weeks)	Appearance ([3]; 60 °C (Open), 2 weeks)	Purity (%) ([3]; 60 °C (Open), 2 weeks)	ee (%) ([3]; 60 °C (Open), 2 weeks)	Appearance ([3]; 60 °C (Open), 4 weeks)	Purity (%) ([3]; 60 °C (Open), 4 weeks)	ee (%) ([3]; 60 °C (Open), 4 weeks)	Structure (SMILES)	further results
approximately 0.25%	did not change	Off-white powder	99.68	100.00	Off-white powder	99.67	100.00	Off-white powder	99.69	100.00	Off-white powder	99.67	100.00	Off-white powder	99.69	100.00	Off-white powder	99.67	100.00	CN(C(=O)c1ccc2nc(N)c3cncn3c2c1)[C@@H]1COc2cc(C(F)(F)F)ccc21 [Maleate crystalline form A, (S)-4-amino-N-methyl-N-(6-(trifluoromethyl)-2,3-dihydrobenzofuran-3-yl)imidazo[1,5-a]quinoxaline-8-carboxamide]	crystallinity in the formulation [2]: remained relatively stable; Appearance ([3]; Initial): Off-white powder; Purity (%) ([3]; Initial): 99.66%; ee (%) ([3]; Initial): 100.00%; Crystalline Form Change [3]: None; Crystalline Form Change ([4]; FeSSIF): None; Solubility ([4]; H2O): 42.12 µg/mL; Crystalline Form Change ([4]; H2O): None; Crystalline Form Change ([4]; SGF): None; solubility at 24 h ([4]; fed state simulated intestinal fluid (FeSSIF), pH 5, fessif, FeSSIF): 258 µg/mL; pH ([4]; FeSSIF): 4.83; pH ([4]; H2O): 4.17; pH ([4]; SGF): 0.96; solubility at 24 h ([4]; simulated gastric fluid (SGF), pH 1.2, simulated gastric fluid, SGF): 443 µg/mL; crystalline form after jet milling [5]: retained its crystalline form; crystalline form after pressurization [6]: retained its crystalline form
approximately 0.37%	did not change	Off-white powder	99.83	100.00	Off-white powder	99.84	100.00	Off-white powder	99.84	100.00	Off-white powder	99.80	100.00	Off-white powder	99.66	100.00	Off-white powder	99.50	100.00	CN(C(=O)c1ccc2nc(N)c3cncn3c2c1)[C@@H]1COc2cc(C(F)(F)F)ccc21 [p-toluenesulfonate crystalline form A, (S)-4-amino-N-methyl-N-(6-(trifluoromethyl)-2,3-dihydrobenzofuran-3-yl)imidazo[1,5-a]quinoxaline-8-carboxamide]	Appearance ([3]; Initial): Off-white powder; Purity (%) ([3]; Initial): 99.81%; ee (%) ([3]; Initial): 100.00%; Crystalline Form Change [3]: None; Solubility ([4]; FeSSIF): 365.38 µg/mL (≈ 855 µM); Crystalline Form Change ([4]; FeSSIF): None; Solubility ([4]; H2O): 248.78 µg/mL (≈ 582 µM); Crystalline Form Change ([4]; H2O): None; Solubility ([4]; SGF): 293.98 µg/mL (≈ 688 µM); Crystalline Form Change ([4]; SGF): None; pH ([4]; FeSSIF): 4.78; pH ([4]; H2O): 3.19; pH ([4]; SGF): 0.98
